Laboratory results: patent US12493040B2, “Cancer detection method using sense of smell of nematode” (HIROTSU BIO SCIENCE INC., priority 2013, dated 2025)

Tested on: RNAi-treated eri-1 (mg366) nematodes
Experiment: RNAi screening of olfactory receptor genes: chemotaxis assay of RNAi-treated nematodes to odorants
Type: in vivo, Caenorhabditis elegans
Conditions: low concentration of attractant
In short: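 Chemotaxis of adult RNAi-fed eri-1 (mg366) nematodes (30–50 per test) was measured toward low (1 μl, 10^−3 or 10^−4 dilution) or high (1 and 5 μl neat) odorant doses. Knockdown: 4 days feeding on E. coli from Ahringer library with IPTG and ampicillin. Differences called by z score at ±1.96, weaker cutoff ±0.96.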

`CCC(=O)C(C)=O` [pentanedione] showed a chemotaxis index (Control nematodes) of 0.49 ± 0.020, a chemotaxis index (srh-10 RNAi-treated nematodes) of 0.68 and a chemotaxis index (srh-11 RNAi-treated nematodes) of 0.75. It also gave a chemotaxis index (srh-15 RNAi-treated nematodes) of 0.44, a chemotaxis index (srh-16 RNAi-treated nematodes) of 0.95 and a chemotaxis index (srh-18 RNAi-treated nematodes) of 0.96. The chemotaxis index (srh-19 RNAi-treated nematodes) was 0.64, the chemotaxis index (srh-22 RNAi-treated nematodes) was 0.42 and the chemotaxis index (srh-23 RNAi-treated nematodes) was 0.48. For the same compound, the chemotaxis index (srh-24 RNAi-treated nematodes) was 0.59, the chemotaxis index (srh-25 RNAi-treated nematodes) was 0.95 and the chemotaxis index (srh-27 RNAi-treated nematodes) was 0.27. For the same compound, the chemotaxis index (srh-28 RNAi-treated nematodes) was 0.22, the chemotaxis index (srh-36 RNAi-treated nematodes) was 0.26 and the chemotaxis index (srh-37 RNAi-treated nematodes) was 0.60. The chemotaxis index (srh-39 RNAi-treated nematodes) was −0.24, the chemotaxis index (srh-40 RNAi-treated nematodes) was 0.47 and the chemotaxis index (srh-41 RNAi-treated nematodes) was 0.57. For the same compound, the chemotaxis index (srh-44 RNAi-treated nematodes) was 0.52, the chemotaxis index (srh-45 RNAi-treated nematodes) was 0.26 and the chemotaxis index (srh-46 RNAi-treated nematodes) was 0.03. It also gave a chemotaxis index (srh-48 RNAi-treated nematodes) of 0.38, a chemotaxis index (srh-49 RNAi-treated nematodes) of 0.60 and a chemotaxis index (srh-50 RNAi-treated nematodes) of 0.53. It also gave a chemotaxis index (srh-51 RNAi-treated nematodes) of 0.63, a chemotaxis index (srh-52 RNAi-treated nematodes) of 0.51 and a chemotaxis index (srh-55 RNAi-treated nematodes) of 0.49. It also gave a chemotaxis index (srh-59 RNAi-treated nematodes) of −0.14, a chemotaxis index (srh-60 RNAi-treated nematodes) of 0.22 and a chemotaxis index (srh-61 RNAi-treated nematodes) of 0.40. It also gave a chemotaxis index (srh-67 RNAi-treated nematodes) of 0.41, a chemotaxis index (srh-68 RNAi-treated nematodes) of 0.21 and a chemotaxis index (srh-69 RNAi-treated nematodes) of 0.13. The chemotaxis index (srh-70 RNAi-treated nematodes) was 0.25, the chemotaxis index (srh-71 RNAi-treated nematodes) was 0.14 and the chemotaxis index (srh-72 RNAi-treated nematodes) was 0.29. For the same compound, the chemotaxis index (srh-74 RNAi-treated nematodes) was 0.42, the chemotaxis index (srh-75 RNAi-treated nematodes) was 0.53 and the chemotaxis index (srh-77 RNAi-treated nematodes) was 0.32. The chemotaxis index (srh-79 RNAi-treated nematodes) was 0.53, the chemotaxis index (srh-80 RNAi-treated nematodes) was 0.41 and the chemotaxis index (srh-82 RNAi-treated nematodes) was 0.49. For the same compound, the chemotaxis index (srh-83 RNAi-treated nematodes) was 0.72, the chemotaxis index (srh-97 RNAi-treated nematodes) was 0.74 and the chemotaxis index (srh-99 RNAi-treated nematodes) was 0.54. The chemotaxis index (srh-100 RNAi-treated nematodes) was 0.35, the chemotaxis index (srh-104 RNAi-treated nematodes) was −0.30 and the chemotaxis index (srh-105 RNAi-treated nematodes) was 0.27. For the same compound, the chemotaxis index (srh-109 RNAi-treated nematodes) was 0.65, the chemotaxis index (srh-111 RNAi-treated nematodes) was 0.39 and the chemotaxis index (srh-113 RNAi-treated nematodes) was 0.14. It also gave a chemotaxis index (srh-115 RNAi-treated nematodes) of 0.39, a chemotaxis index (srh-116 RNAi-treated nematodes) of 0.22 and a chemotaxis index (srh-118 RNAi-treated nematodes) of 0.44. For the same compound, the chemotaxis index (srh-119 RNAi-treated nematodes) was 0.18, the chemotaxis index (srh-120 RNAi-treated nematodes) was 0.80 and the chemotaxis index (srh-122 RNAi-treated nematodes) was 0.24. For the same compound, the chemotaxis index (srh-123 RNAi-treated nematodes) was 0.30, the chemotaxis index (srh-125 RNAi-treated nematodes) was 0.08 and the chemotaxis index (srh-128 RNAi-treated nematodes) was 0.49. The chemotaxis index (srh-129 RNAi-treated nematodes) was 0.15, the chemotaxis index (srh-130 RNAi-treated nematodes) was 0.36 and the chemotaxis index (srh-214 RNAi-treated nematodes) was 0.88. For the same compound, the chemotaxis index (srh-216 RNAi-treated nematodes) was 0.65, the chemotaxis index (srh-217 RNAi-treated nematodes) was 0.92 and the chemotaxis index (srh-220 RNAi-treated nematodes) was 0.67. The chemotaxis index (srh-222 RNAi-treated nematodes) was 0.46, the chemotaxis index (srh-223 RNAi-treated nematodes) was 0.23 and the chemotaxis index (srh-227 RNAi-treated nematodes) was 0.60. For the same compound, the chemotaxis index (srh-229 RNAi-treated nematodes) was 0.12, the chemotaxis index (srh-233 RNAi-treated nematodes) was 0.33 and the chemotaxis index (srh-235 RNAi-treated nematodes) was 0.51. For the same compound, the chemotaxis index (srh-236 RNAi-treated nematodes) was 0.37, the chemotaxis index (srh-239 RNAi-treated nematodes) was 0.49 and the chemotaxis index (srh-241 RNAi-treated nematodes) was 0.63. It also gave a chemotaxis index (srh-243 RNAi-treated nematodes) of 0.00, a chemotaxis index (srh-244 RNAi-treated nematodes) of 0.19 and a chemotaxis index (srh-247 RNAi-treated nematodes) of 0.38. It also gave a chemotaxis index (srh-250 RNAi-treated nematodes) of 0.58, a chemotaxis index (srh-251 RNAi-treated nematodes) of 0.32 and a chemotaxis index (srh-252 RNAi-treated nematodes) of 0.65. The chemotaxis index (srh-258 RNAi-treated nematodes) was 0.35, the chemotaxis index (srh-261 RNAi-treated nematodes) was 0.27 and the chemotaxis index (srh-264 RNAi-treated nematodes) was 0.46. The chemotaxis index (srh-266 RNAi-treated nematodes) was 0.00, the chemotaxis index (srh-274 RNAi-treated nematodes) was 0.82 and the chemotaxis index (srh-275 RNAi-treated nematodes) was 0.57. It also gave a chemotaxis index (srh-276 RNAi-treated nematodes) of 0.45, a chemotaxis index (srh-277 RNAi-treated nematodes) of 0.83 and a chemotaxis index (srh-279 RNAi-treated nematodes) of 0.55. It also gave a chemotaxis index (srh-281 RNAi-treated nematodes) of 0.64, a chemotaxis index (srh-282 RNAi-treated nematodes) of 0.73 and a chemotaxis index (srh-283 RNAi-treated nematodes) of 0.15. The chemotaxis index (srh-284 RNAi-treated nematodes) was 0.36, the chemotaxis index (srh-291 RNAi-treated nematodes) was 0.48 and the chemotaxis index (srh-292 RNAi-treated nematodes) was 0.52. The chemotaxis index (srh-293 RNAi-treated nematodes) was 0.00, the chemotaxis index (srh-297 RNAi-treated nematodes) was 0.32 and the chemotaxis index (srh-298 RNAi-treated nematodes) was 0.68. It also gave a chemotaxis index (srh-308 RNAi-treated nematodes) of 0.39.
